The source of these data is US11667649B2, “Heteroaromatic macrocyclic ether chemotherapeutic agents” (Nuvalent, Inc., priority 2020, dated 2023).

The structures appear in SMILES notation.

The test system of this test is TPM3-NTRK1-wt IC50 / primary target (e.g. CD74-ROS1-wt) IC50, Ba/F3 cells. The test can be described thus: Cell assay TRKA selectivity (TRKA potency divided by primary target potency). Format: cell-based. Conditions: for TPM3-NTRK1-wt/CD74-ROS1-G2032R: TRKA selectivity ratio: TPM3-NTRK1-wt IC50 / CD74-ROS1-G2032R IC50, Ba/F3 cells; for TPM3-NTRK1-wt/CD74-ROS1-wt: TRKA selectivity ratio: TPM3-NTRK1-wt IC50 / CD74-ROS1-wt IC50, Ba/F3 cells; for TPM3-NTRK1-wt/EML4-ALK-L1196M-G1202R: TRKA selectivity ratio: TPM3-NTRK1-wt IC50 / EML4-ALK-L1196M-G1202R IC50, Ba/F3 cells; for TPM3-NTRK1-wt/EML4-ALK-wt: TRKA selectivity ratio: TPM3-NTRK1-wt IC50 / EML4-ALK-wt IC50, Ba/F3 cells. The method, boiled down: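 Ratio of TRKA to primary-target cellular IC50 (e.g. TPM3-NTRK1-wt/CD74-ROS1-wt), grouped into bins A >30, B >10, C ≥1, D <1. Each IC50 came from engineered Ba/F3 fusion lines grown without IL-3, dosed for 72 h and read as CellTiter-Glo luminescence, with a four-parameter logistic fit.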

With `C[C@H]1Oc2cc(cnc2N)-c2c(nn(C)c2C#N)Cc2cccnc2-c2ccc(F)cc21` [Example 112, (20R)-23-amino-17-fluoro-4,20-dimethyl-21-oxa-4,5,12,24-tetraazapentacyclo[20.3.1.0^2,^6.0^8,^13.0^14,^19]hexacosa-1(25),2,5,8(13),9,11,14,16,18,22(26),23-undecaene-3-carbonitrile], the TPM3-NTRK1-wt/CD74-ROS1-G2032R result was “C (bin C for moderate selectivity, ratio≥1)”; the TPM3-NTRK1-wt/CD74-ROS1-wt entry is listed as “A (bin A for very high selectivity, ratio>30-fold)”; the TPM3-NTRK1-wt/EML4-ALK-L1196M-G1202R result is “D (bin D for low selectivity, ratio<1)”; the TPM3-NTRK1-wt/EML4-ALK-wt entry is recorded as “A (bin A for very high selectivity, ratio>30-fold)”.

On to `Cn1nc(C#N)c2c1Cc1cc(Cl)nn1-c1ccc(F)cc1COc1cc-2cnc1N` [Example 113, 22-amino-10-chloro-16-fluoro-5-methyl-20-oxa-4,5,11,12,23-pentaazapentacyclo[19.3.1.0^2,^6.0^8,^12.0^13,^18]pentacosa-1(24),2(6),3,8,10,13,15,17,21(25),22-decaene-3-carbonitrile], for which the TPM3-NTRK1-wt/CD74-ROS1-G2032R result is “A (bin A for very high selectivity, ratio>30-fold)”; the TPM3-NTRK1-wt/CD74-ROS1-wt result is recorded as “A (bin A for very high selectivity, ratio>30-fold)”; the TPM3-NTRK1-wt/EML4-ALK-L1196M-G1202R entry is “C (bin C for moderate selectivity, ratio≥1)”; the TPM3-NTRK1-wt/EML4-ALK-wt result is listed as “A (bin A for very high selectivity, ratio>30-fold)”.

Take `Cc1nc2c(s1)Cc1nnn(CC3CC3)c1-c1cnc(N)c(c1)O[C@H](C)c1cc(F)ccc1-2` [Example 114, (19R)-3-(cyclopropylmethyl)-16-fluoro-10,19-dimethyl-20-oxa-9-thia-3,4,5,11,23-pentaazapentacyclo[19.3.1.0^2,^6.0^8,^12.0^13,^18]pentacosa-1(24),2(6),4,8(12),10,13,15,17,21(25),22-decaen-22-amine]: the TPM3-NTRK1-wt/CD74-ROS1-G2032R result was “A (bin A for very high selectivity, ratio>30-fold)”; the TPM3-NTRK1-wt/CD74-ROS1-wt result is “A (bin A for very high selectivity, ratio>30-fold)”; the TPM3-NTRK1-wt/EML4-ALK-L1196M-G1202R result is “A (bin A for very high selectivity, ratio>30-fold)”; the TPM3-NTRK1-wt/EML4-ALK-wt result was “A (bin A for very high selectivity, ratio>30-fold)”.

Regarding `Cc1nc2c(s1)Cc1c(c(C#N)nn1C)-c1cnc(N)c(c1)OCc1cc(F)ccc1-2` [Example 115, 22-amino-16-fluoro-5,10-dimethyl-20-oxa-9-thia-4,5,11,23-tetraazapentacyclo[19.3.1.0^2,^6.0^8,^12.0^13,^18]pentacosa-1(24),2(6),3,8(12),10,13,15,17,21(25),22-decaene-3-carbonitrile], the TPM3-NTRK1-wt/CD74-ROS1-G2032R entry is recorded as “A (bin A for very high selectivity, ratio>30-fold)”; the TPM3-NTRK1-wt/CD74-ROS1-wt result is “A (bin A for very high selectivity, ratio>30-fold)”; the TPM3-NTRK1-wt/EML4-ALK-L1196M-G1202R result is on record as “B (bin B for high selectivity, ratio>10-fold)”; the TPM3-NTRK1-wt/EML4-ALK-wt entry is “A (bin A for very high selectivity, ratio>30-fold)”.

Regarding `C[C@H]1Oc2cc(cnc2N)-c2c(nnn2CC2CC2)Cc2cccnc2-c2ccc(F)cc21` [Example 116, (20R)-3-(cyclopropylmethyl)-17-fluoro-20-methyl-21-oxa-3,4,5,12,24-pentaazapentacyclo[20.3.1.0^2,^6.0^8,^13.0^14,^19]hexacosa-1(25),2(6),4,8(13),9,11,14,16,18,22(26),23-undecaen-23-amine], the TPM3-NTRK1-wt/CD74-ROS1-G2032R entry was “A (bin A for very high selectivity, ratio>30-fold)”; the TPM3-NTRK1-wt/CD74-ROS1-wt result is recorded as “A (bin A for very high selectivity, ratio>30-fold)”; the TPM3-NTRK1-wt/EML4-ALK-L1196M-G1202R result was “A (bin A for very high selectivity, ratio>30-fold)”; the TPM3-NTRK1-wt/EML4-ALK-wt entry was “A (bin A for very high selectivity, ratio>30-fold)”.

`C[C@H]1Oc2cc(cnc2N)-c2c(C#N)nn(C)c2Cc2ccccc2-c2ccc(F)cc21` [Example 117, (20R)-23-amino-17-fluoro-5,20-dimethyl-21-oxa-4,5,24-triazapentacyclo[20.3.1.0^2,^6.0^8,^13.0^14,^19]hexacosa-1(25),2(6),3,8(13),9,11,14,16,18,22(26),23-undecaene-3-carbonitrile]: the TPM3-NTRK1-wt/CD74-ROS1-G2032R entry is given as “A (bin A for very high selectivity, ratio>30-fold)”; the TPM3-NTRK1-wt/CD74-ROS1-wt entry was “A (bin A for very high selectivity, ratio>30-fold)”; the TPM3-NTRK1-wt/EML4-ALK-L1196M-G1202R result is on record as “B (bin B for high selectivity, ratio>10-fold)”; the TPM3-NTRK1-wt/EML4-ALK-wt result is “A (bin A for very high selectivity, ratio>30-fold)”.

For `CC(C)n1nc2c(c1C#N)-c1cnc(N)c(c1)O[C@H](C)c1cc(F)ccc1-n1nccc1C2` [Example 118, (19R)-22-amino-16-fluoro-19-methyl-4-(propan-2-yl)-20-oxa-4,5,11,12,23-pentaazapentacyclo[19.3.1.0^2,^6.0^8,^12.0^13,^18]pentacosa-1(24),2,5,8,10,13,15,17,21(25),22-decaene-3-carbonitrile], the TPM3-NTRK1-wt/CD74-ROS1-G2032R result is recorded as “D (bin D for low selectivity, ratio<1)”; the TPM3-NTRK1-wt/CD74-ROS1-wt result is on record as “A (bin A for very high selectivity, ratio>30-fold)”; the TPM3-NTRK1-wt/EML4-ALK-L1196M-G1202R entry was “D (bin D for low selectivity, ratio<1)”; the TPM3-NTRK1-wt/EML4-ALK-wt entry is on record as “A (bin A for very high selectivity, ratio>30-fold)”.

Consider `CCn1nc2c(c1C#N)-c1cnc(N)c(c1)O[C@H](C)c1cc(F)ccc1-n1nccc1C2` [Example 119, (19R)-22-amino-4-ethyl-16-fluoro-19-methyl-20-oxa-4,5,11,12,23-pentaazapentacyclo[19.3.1.0^2,^6.0^8,^12.0^13,^18]pentacosa-1(24),2,5,8,10,13,15,17,21(25),22-decaene-3-carbonitrile], for which the TPM3-NTRK1-wt/CD74-ROS1-G2032R result was “D (bin D for low selectivity, ratio<1)”; the TPM3-NTRK1-wt/CD74-ROS1-wt result is “A (bin A for very high selectivity, ratio>30-fold)”; the TPM3-NTRK1-wt/EML4-ALK-L1196M-G1202R result is reported as “D (bin D for low selectivity, ratio<1)”; the TPM3-NTRK1-wt/EML4-ALK-wt entry is “A (bin A for very high selectivity, ratio>30-fold)”.

In the case of `CCc1noc2c1-c1cnc(N)c(c1)O[C@H](C)c1cc(F)ccc1-c1nncn1C2` [Example 120, (19R)-3-ethyl-16-fluoro-19-methyl-5,20-dioxa-4,8,10,11,23-pentaazapentacyclo[19.3.1.0^2,^6.0^8,^12.0^13,^18]pentacosa-1(24),2(6),3,9,11,13,15,17,21(25),22-decaen-22-amine], the TPM3-NTRK1-wt/CD74-ROS1-G2032R entry is “C (bin C for moderate selectivity, ratio≥1)”; the TPM3-NTRK1-wt/CD74-ROS1-wt entry is listed as “A (bin A for very high selectivity, ratio>30-fold)”; the TPM3-NTRK1-wt/EML4-ALK-L1196M-G1202R entry is listed as “D (bin D for low selectivity, ratio<1)”; the TPM3-NTRK1-wt/EML4-ALK-wt entry is “C (bin C for moderate selectivity, ratio≥1)”.

`C[C@H]1Oc2cc(cnc2N)-c2c(cnn2CC2CC2)Cc2cn(C)nc2-c2ccc(F)cc21` [Example 121, (19R)-3-(cyclopropylmethyl)-16-fluoro-10,19-dimethyl-20-oxa-3,4,10,11,23-pentaazapentacyclo[19.3.1.0^2,^6.0^8,^12.0^13,^18]pentacosa-1(24),2(6),4,8,11,13,15,17,21(25),22-decaen-22-amine]: the TPM3-NTRK1-wt/CD74-ROS1-G2032R result is “A (bin A for very high selectivity, ratio>30-fold)”; the TPM3-NTRK1-wt/CD74-ROS1-wt result is listed as “A (bin A for very high selectivity, ratio>30-fold)”; the TPM3-NTRK1-wt/EML4-ALK-L1196M-G1202R result is “A (bin A for very high selectivity, ratio>30-fold)”; the TPM3-NTRK1-wt/EML4-ALK-wt entry is “A (bin A for very high selectivity, ratio>30-fold)”.

With `C[C@H]1Oc2cc(cnc2N)-c2c(nnn2CC2CC2)Cc2cc(C(F)F)nn2-c2ccc(F)cc21` [Example 122, (19R)-3-(cyclopropylmethyl)-10-(difluoromethyl)-16-fluoro-19-methyl-20-oxa-3,4,5,11,12,23-hexaazapentacyclo[19.3.1.0^2,^6.0^8,^12.0^13,^18]pentacosa-1(24),2(6),4,8,10,13,15,17,21(25),22-decaen-22-amine], the TPM3-NTRK1-wt/CD74-ROS1-G2032R entry is on record as “A (bin A for very high selectivity, ratio>30-fold)”; the TPM3-NTRK1-wt/CD74-ROS1-wt result is listed as “A (bin A for very high selectivity, ratio>30-fold)”; the TPM3-NTRK1-wt/EML4-ALK-L1196M-G1202R entry is reported as “C (bin C for moderate selectivity, ratio≥1)”; the TPM3-NTRK1-wt/EML4-ALK-wt result is recorded as “B (bin B for high selectivity, ratio>10-fold)”.

As to `C[C@H]1Oc2cc(cnc2N)-c2c(c(C#N)nn2CC2CC2)Cc2cccnc2-c2ccc(F)cc21` [Example 123, (20R)-23-amino-3-(cyclopropylmethyl)-17-fluoro-20-methyl-21-oxa-3,4,12,24-tetraazapentacyclo[20.3.1.0^2,^6.0^8,^13.0^14,^19]hexacosa-1(25),2(6),4,8(13),9,11,14,16,18,22(26),23-undecaene-5-carbonitrile], the TPM3-NTRK1-wt/CD74-ROS1-G2032R result is listed as “C (bin C for moderate selectivity, ratio≥1)”; the TPM3-NTRK1-wt/CD74-ROS1-wt result is “A (bin A for very high selectivity, ratio>30-fold)”; the TPM3-NTRK1-wt/EML4-ALK-L1196M-G1202R result is reported as “C (bin C for moderate selectivity, ratio≥1)”; the TPM3-NTRK1-wt/EML4-ALK-wt result was “A (bin A for very high selectivity, ratio>30-fold)”.
